Among the data in patent US20050119304A1, “Urea derivatives” (priority 2001, published 2005) are IC50 and melting point values, retold here.

Broadly, the melting point is the temperature of the solid-liquid transition.

For one data set, the target named is T1, human VR1 (Homo sapiens, UniProt Q8NER1).
T1 construct: The cloned hVR1 cDNA was constructed with pcDNA3 vector and transfected into a CHOluc9aeq cell line; expressed in transfected cells
The data set is described as follows: Capsaicin-induced Ca2+ influx in the human VR1-transfected CHO cell line (Assay 1). The class given is cell-based. The settings on record: read-out: hVR1 class. The source says:
[Measurement of Capsaicin-Induced Ca^2+ Influx in the Human VR1-Transfected CHO Cell Line] (Assay 1)
(1) Establishment of the Human VR1-CHOluc9aeq Cell Line
Human vanilloid receptor (hVR1) cDNA was cloned from libraries of axotomized dorsal root ganglia (WO2000/29577). The cloned hVR1 cDNA was constructed with pcDNA3 vector and transfected into a CHOluc9aeq cell line. The cell line contains aequorin and CRE-luciferase reporter genes as read-out signals. The transfectants were cloned by limiting dilution in selection medium (DMEM/F12. medium (Gibco BRL) supplemented with 10% FCS, 1.4 mM Sodium pyruvate, 20 mM HEPES, 0.15% Sodium bicarbonate, 100 U/ml penicillin, 100 μg/ml strept mycin, 2 mM glutamine, non-essential amino acids and 2 mg/ml G418). Ca^2+ influx was examined in the capsaicin-stimulated clones. A high responder clone was selected and used for further experiments in the project. The human VR1-CHOluc9aeq cells were maintained in the selection medium and passaged every 3-4 days at 1-2.5×10^5 cells/flask ([…]).
(2) Measurement of Ca^2+ Influx Using FDSS-3000
Human VR1-CHOluc9aeq cells were suspended in a culture medium which is the same as the selection medium except for G418 and seeded at a density of 1,000 cells per well into 384-well plates (black walled clear-base/Nalge Nunc International). Following the culture for 48 hrs the medium was changed to 2 μM Fluo-3 AM (Molecular Probes) and 0.02% Puronic F-127 in assay buffer (Hank's balanced salt solution (HBSS), 17 mM HEPES (pH7.4), 1 mM Probenecid, 0.1% BSA) and the cells were incubated for 60 min at 25° C. After washing twice with assay buffer the cells were incubated with a test compound or vehicle for 20 min at 25° C. Mobilization of cytoplasmic Ca^2+ was measured by FDSS-3000 (λex=488 nm, λem=540 nm/Hamamatsu Photonics) for 60 sec after the stimulation with 10 nM capsaicin. Integral R was calculated and compared with controls.
The data corresponds to the compounds as yielded by solid phase synthesis and thus to levels of purity of about 40 to 90%.

T1 sequence (Q8NER1 whole entry): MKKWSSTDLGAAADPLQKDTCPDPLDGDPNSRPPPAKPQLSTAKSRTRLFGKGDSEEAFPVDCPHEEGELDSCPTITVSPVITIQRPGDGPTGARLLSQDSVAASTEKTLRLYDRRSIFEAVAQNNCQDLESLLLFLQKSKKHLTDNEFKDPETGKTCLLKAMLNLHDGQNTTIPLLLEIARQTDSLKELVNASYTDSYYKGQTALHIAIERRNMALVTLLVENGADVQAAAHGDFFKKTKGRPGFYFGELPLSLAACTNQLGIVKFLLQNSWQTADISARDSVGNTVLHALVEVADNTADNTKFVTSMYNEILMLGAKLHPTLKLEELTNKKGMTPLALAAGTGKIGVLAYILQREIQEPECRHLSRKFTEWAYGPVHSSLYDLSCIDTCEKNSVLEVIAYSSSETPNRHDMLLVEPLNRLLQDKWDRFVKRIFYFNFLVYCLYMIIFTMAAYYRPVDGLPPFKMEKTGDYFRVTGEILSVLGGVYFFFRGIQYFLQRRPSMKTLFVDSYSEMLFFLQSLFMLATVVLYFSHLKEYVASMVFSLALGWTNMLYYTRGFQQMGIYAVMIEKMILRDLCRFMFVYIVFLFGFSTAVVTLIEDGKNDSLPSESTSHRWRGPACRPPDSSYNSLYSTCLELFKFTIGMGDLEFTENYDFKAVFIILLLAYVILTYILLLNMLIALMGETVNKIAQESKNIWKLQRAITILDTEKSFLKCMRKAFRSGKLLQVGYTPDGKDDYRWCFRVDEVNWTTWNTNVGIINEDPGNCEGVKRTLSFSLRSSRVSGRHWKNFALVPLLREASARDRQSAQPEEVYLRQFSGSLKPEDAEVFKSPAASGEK

Take `COc1ccccc1NC(=O)Nc1cccc2[nH]ccc12` [Example 84]: the melting point was 208 to 209 °C. In addition, the IC50 on human VR1 was 500 to 1000 nM.

On to `CCOC(=O)c1cccc(NC(=O)Nc2cccc3[nH]ccc23)c1` [Example 85], for which the melting point lay within 194 to 196 °C. In addition, on human VR1, the IC50 is < 100 nM.

Compound `O=C(Nc1ccccc1-c1ccccc1)Nc1cccc2[nH]ccc12` [Example 86] displayed a melting point of 104 to 106 °C. Further, the IC50 at human VR1 is 500 to 1000 nM.

`O=C(Nc1cccc(Cl)c1)Nc1cccc2[nH]ccc12` [Example 87] yielded a melting point of 238 to 239 °C. The IC50 on human VR1 is 100 to 500 nM.

As to `O=C(Nc1ccc2ccccc2c1)Nc1cccc2[nH]ccc12` [Example 88], the melting point is 242 to 243 °C. The IC50 at human VR1 lay in the range of 100 to 500 nM.

`O=C(NCc1ccc(Br)cc1)Nc1cccc2[nH]ccc12` [Example 89] registered a melting point of 199 to 202 °C. The IC50 on human VR1 is < 100 nM.

The compound `O=C(Nc1cccc(F)c1)Nc1cccc2[nH]ccc12` [Example 90] gave a melting point of 225 to 226 °C. Also, on human VR1, the IC50 was 500 to 1000 nM.

`O=C(Nc1ccc(Cl)cc1)Nc1cccc2[nH]ccc12` [Example 91] registered a melting point of 247 to 248 °C. At human VR1, the IC50 was in the range of 100 to 500 nM.

`O=C(Nc1ccc(C(F)(F)F)cc1)Nc1cccc2[nH]ccc12` [Example 92] registered a melting point of 242 to 243 °C. Besides, the IC50 at human VR1 was in the range of 100 to 500 nM.

In turn, `O=C(Nc1cc(Cl)cc(Cl)c1)Nc1cccc2[nH]ccc12` [Example 93] showed a melting point of 262 to 263 °C. On human VR1, the IC50 is 100 to 500 nM.

As to `O=C(Nc1ccccc1F)Nc1cccc2[nH]ccc12` [Example 94], the melting point was 244 to 246 °C. Also, the IC50 on human VR1 lay within 500 to 1000 nM.

In turn, `O=C(Nc1ccccc1Cl)Nc1cccc2[nH]ccc12` [Example 95] gave a melting point of 244 to 246 °C. Moreover, the IC50 on human VR1 was in the range of 100 to 500 nM.

For `O=C(Nc1ccc(Cl)c([N+](=O)[O-])c1)Nc1cccc2[nH]ccc12` [Example 96], the melting point fell in the range of 233 to 235 °C. Further, the IC50 on human VR1 was in the range of 100 to 500 nM.

`O=C(Nc1cc([N+](=O)[O-])ccc1F)Nc1cccc2[nH]ccc12` [Example 97] had a melting point of 261 to 263 °C. The IC50 at human VR1 is 500 to 1000 nM.

`O=C(Nc1ccc(F)c([N+](=O)[O-])c1)Nc1cccc2[nH]ccc12` [Example 98] registered a melting point of 248 to 251 °C. Further, the IC50 at human VR1 fell in the range of 100 to 500 nM.

In turn, `O=C(NCc1cccc(F)c1)Nc1cccc2[nH]ccc12` [Example 99] returned a melting point of 190 to 192 °C. The IC50 on human VR1 fell in the range of 500 to 1000 nM.

In the case of `Cc1ccc(CNC(=O)Nc2cccc3[nH]ccc23)cc1` [Example 100], the melting point amounted to 223 °C. For the same compound, the IC50 on human VR1 is 100 to 500 nM.

The compound `O=C(NCc1ccccc1Cl)Nc1cccc2[nH]ccc12` [Example 101] yielded a melting point of 237 to 238 °C. Also, the IC50 on human VR1 is 100 to 500 nM.

Compound `COc1ccc(CNC(=O)Nc2cccc3[nH]ccc23)cc1` [Example 102] yielded a melting point of 201 to 202 °C. Moreover, on human VR1, the IC50 lay in the range of 500 to 1000 nM.
